Test results taken from article PMC4550478, “Metronidazole-triazole conjugates: Activity against Clostridium difficile and parasites” (European Journal of Medicinal Chemistry, 2015).
In brackets after ≈: the same amount, converted by molar mass. Where two headings read alike, the source gives them in different places.

Assays:
[1] = MIC against ESKAPE pathogens, aerobic; format: cell-based; conditions: aerobic conditions, single concentration screen, n = 3; read-out: MIC ESKAPE bacteria
Description: All compounds were tested for activity against a set of anaerobic C. difficile bacteria (630 ATCC BAA-1382, NAP1/027 M7404, NAP1/027 ATCC BAA-1803, VPI10463 ATCC 43255, CD26A54_S and CD26A54_R) and representative ESKAPE pathogens S. aureus (MRSA ATCC 43300), E. coli (ATCC 25922), K. pneumoniae (ATCC 700603), A. baumannii (ATCC 19606) and P. aeruginosa (ATCC 27853) using a standard broth microdilution assay. Selected compounds were tested for activity against H. pylori strains (26695, and clinical isolates MtzS 13/25, MtzR 98/285 and MtzR 13/61) using agar plate dilution, and for antimicrobial activity against twelve Gram-positive bacterial strains: Enterococcus faecalis (VanA clinical isolate), Enterococcus faecium (MDR VanA ATCC 51559), Streptococcus pneumoniae (MDR ATCC 700677), S. aureus (MRSA ATCC 43300, MRSA clinical isolate, MRSA/DRSA clinical isolate, GISA NARSA NRS 1, GISA NARSA NRS 17, VRSA NARSA VRS1, VRSA NARSA VRS4 and VRSA NARSA VRS10) using broth microdilution. C. difficile strains were grown at 37 °C in a COY anaerobic chamber (5% H2, 10% CO2, 85% N2). H. pylori strains were grown at 37 °C under a microaerobic atmosphere (5% O2, 10% CO2). All facultative anaerobic bacteria were grown at 37 °C with normal atmospheric oxygen levels. […] Positive growth control of bacteria and DMSO as well as a negative control of only media were included for every plate. Full assay details are provided in the supplementary information.
MICs were determined by a two-fold serial broth micro dilution according to the recommendation of CLSI standards with an inoculum of 5 × 10^5 CFU/mL^4 The compounds along with standard antibiotics were serially diluted twofold across the wells of 96-well non-binding surface plates (NBS, Corning). […] Gram-positive and Gram-negative bacteria were cultured in Mueller Hinton broth (MHB) (Bacto laboratories, Cat. no. 211443) at 37 °C overnight. A sample of each culture was then diluted 40-fold in fresh MHB broth and incubated at 37 °C for 2-3 h. The resultant mid-log phase cultures were diluted to the final concentration of 5 × 10^5 CFU/mL, then 50 μL was added to each well of the compound containing 96-well plates. All the plates were covered and incubated at 37 °C for 24 h.

[2] = system: C. difficile NAP1/027 ATCC BAA-1803; assay: MIC broth microdilution, C. difficile NAP1/027 ATCC BAA-1803; format: cell-based, Clostridium difficile; conditions: for MIC: Clostridioides difficile
Description: All compounds were tested for activity against a set of anaerobic C. difficile bacteria (630 ATCC BAA-1382, NAP1/027 M7404, NAP1/027 ATCC BAA-1803, VPI10463 ATCC 43255, CD26A54_S and CD26A54_R) and representative ESKAPE pathogens S. aureus (MRSA ATCC 43300), E. coli (ATCC 25922), K. pneumoniae (ATCC 700603), A. baumannii (ATCC 19606) and P. aeruginosa (ATCC 27853) using a standard broth microdilution assay. Selected compounds were tested for activity against H. pylori strains (26695, and clinical isolates MtzS 13/25, MtzR 98/285 and MtzR 13/61) using agar plate dilution, and for antimicrobial activity against […] Gram-positive bacterial strains: Enterococcus faecalis (VanA clinical isolate), Enterococcus faecium (MDR VanA ATCC 51559), Streptococcus pneumoniae (MDR ATCC 700677), S. aureus (MRSA ATCC 43300, MRSA clinical isolate, MRSA/DRSA clinical isolate, GISA NARSA NRS 1, GISA NARSA NRS 17, VRSA NARSA VRS1, VRSA NARSA VRS4 and VRSA NARSA VRS10) using broth microdilution. C. difficile strains were grown at 37 °C in a COY anaerobic chamber (5% H2, 10% CO2, 85% N2). H. pylori strains were grown at 37 °C under a microaerobic atmosphere (5% O2, 10% CO2). All facultative anaerobic bacteria were grown at 37 °C with normal atmospheric oxygen levels. All experiments were performed in duplicate with metronidazole, vancomycin, linezolid or colistin as positive controls for relevant strains (see Table 1). Positive growth control of bacteria and DMSO as well as a negative control of only media were included for every plate. Full assay details are provided in the supplementary information.
C. difficile ATCC BAA-1382, ATCC BAA-1803, ATCC 43255 and M7404 heat shocked spore stocks (10 µL) were transferred into the anaerobic chamber and 10 µL streaked onto pre-reduced (at least 2.5 hr in anaerobic chamber) BHIS agar plates supplemented with 0.1% w/v sodium taurocholate (BHIS(TA)). Plates were incubated for 24 hours prior to assay to give colonies of size 1-3mm diameter with characteristic uneven borders.
The minimum inhibition concentration was determined according to the CLSI Methods with modifications in broth and inoculum for C. difficile according to Babakhani et al.^7,8 Briefly, compounds were prepared to 20X final concentration in 100% water, 60% DMSO and 40% water or 60% DMSO and 40% media. The compounds along with standard antibiotics were serially diluted two-fold across the wells of 96-well non-binding surface plates (Non binding surface, Corning). The plates were placed in the anaerobic chamber overnight to reduce. C. difficile bacteria from BHIS(TA) agar plates were cultured anaerobically in BHIS at 37 °C overnight. A sample of culture was then diluted 40-fold in BHIS broth and incubated at 37 °C for approximately 4.5 hrs. The resultant mid-log phase culture (OD600= 0.5-0.6) was diluted to the final concentration of ~1×10^6 CFU/mL, then 50 µL was added to each well of the compound-containing 96-well plates. This gave final cell concentration of 5×10^5 CFU/mL, final volume 100 µL and 3% maximum DMSO concentration. Compound concentration was typically from 64 to 0.03 µg/mL. An antibiotic standard was included on each 96 well plate as well as a positive growth control (no compound) and sterility control (no bacteria). […] MICs were the lowest concentration showing no visible growth.

[3] = ATCC 43255 / ATCC BAA-1803, NAP1/027 (footnote c: ATCC 43255), MtzS, 24 h, median of at least n = 4, read-out: MIC C. difficile NAP1/027 (footnote c)
[4] = ATCCBAA1803, 24 hr incubation, read-out: MIC C. difficile NAP1/027 ATCC BAA-1803 24 hr
[5] = ATCCBAA1803, 48 hr incubation, read-out: MIC C. difficile NAP1/027 ATCC BAA-1803 48 hr

Compound | MIC [1] [µg/mL] | MIC [2, 3] [µg/mL] | MIC [2, 4] [µg/mL] | MIC [2, 5] [µg/mL] | MIC C. difficile NAP1/027 ATCC BAA-1803 24 hr ([2]; 24 hr incubation) [µg/mL] | MIC C. difficile NAP1/027 ATCC BAA-1803 48 hr ([2]; 48 hr incubation) [µg/mL] | MIC C. difficile NAP1/027 (footnote c) ([2]; NAP1/027 (footnote c: ATCC 43255), MtzS, 24 h, median of at least n = 4) [µg/mL]
Cc1ncc([N+](=O)[O-])n1CCO [Compound 1, metronidazole] | > 32 | 0.5 (≈ 2.92 µM) | 0.5 (≈ 2.92 µM) | 0.5 (≈ 2.92 µM) | – | – | –
Cc1ncc([N+](=O)[O-])n1CCN=[N+]=[N-] [Compound 3, 1-(2-azidoethyl)-2-methyl-5-nitro-1H-imidazole] | – | – | – | – | 0.5 (≈ 2.55 µM) | 1 (≈ 5.1 µM) | 0.5 (≈ 2.55 µM)
Cc1ncc([N+](=O)[O-])n1CCn1cc(-c2ccccc2)nn1 [Compound 4a, 1-(2-(2-methyl-5-nitro-1H-imidazol-1-yl)ethyl)-4-phenyl-1H-1,2,3-triazole] | > 32 | 0.5 (≈ 1.68 µM) | 0.5 (≈ 1.68 µM) | 0.5 (≈ 1.68 µM) | – | – | –
COc1ccc(-c2cn(CCn3c([N+](=O)[O-])cnc3C)nn2)cc1 [Compound 4b, 1-(2-(2-methyl-5-nitro-1H-imidazol-1-yl)ethyl)-4-(4-methoxyphenyl)-1H-1,2,3-triazole] | > 32 | 0.5 (≈ 1.52 µM) | 0.5 (≈ 1.52 µM) | 0.5 (≈ 1.52 µM) | – | – | –
Cc1ncc([N+](=O)[O-])n1CCn1cc(-c2ccc(Cl)cc2)nn1 [Compound 4c, 1-(2-(2-methyl-5-nitro-1H-imidazol-1-yl)ethyl)-4-(4-chlorophenyl)-1H-1,2,3-triazole] | > 32 | 0.25 (≈ 0.751 µM) | 0.25 (≈ 0.751 µM) | 0.5 (≈ 1.5 µM) | – | – | –
Cc1ncc([N+](=O)[O-])n1CCn1cc(-c2ccc(Cl)c(Cl)c2)nn1 [Compound 4d, 1-(2-(2-methyl-5-nitro-1H-imidazol-1-yl)ethyl)-4-(3,4-dichlorophenyl)-1H-1,2,3-triazole] | > 32 | 1 (≈ 2.72 µM) | 1 (≈ 2.72 µM) | 0.5 to 8 (≈ 1.36 to 21.8 µM) | – | – | –
Cc1ccc(-c2cn(CCn3c([N+](=O)[O-])cnc3C)nn2)cc1 [Compound 4e, 1-(2-(2-methyl-5-nitro-1H-imidazol-1-yl)ethyl)-4-(p-tolyl)-1H-1,2,3-triazole] | > 32 | 0.5 (≈ 1.6 µM) | 0.5 (≈ 1.6 µM) | 0.5 (≈ 1.6 µM) | – | – | –
COC(=O)c1cn(CCn2c([N+](=O)[O-])cnc2C)nn1 [Compound 4f, 1-(2-(2-methyl-5-nitro-1H-imidazol-1-yl)ethyl)-4-(methoxycarbonyl)-1H-1,2,3-triazole] | > 32 | 1 (≈ 3.57 µM) | 1 (≈ 3.57 µM) | 1 (≈ 3.57 µM) | – | – | –
Cc1ncc([N+](=O)[O-])n1CCn1cc(Cn2cccn2)nn1 [Compound 4g, 1-(2-(2-methyl-5-nitro-1H-imidazol-1-yl)ethyl)-4-((1H-pyrazol-1-yl)methyl)-1H-1,2,3-triazole] | > 32 | 1 (≈ 3.31 µM) | 1 (≈ 3.31 µM) | 1 to 2 (≈ 3.31 to 6.62 µM) | – | – | –
Cc1ncc([N+](=O)[O-])n1CCn1cc(-c2ccccn2)nn1 [Compound 4h, 1-(2-(2-methyl-5-nitro-1H-imidazol-1-yl)ethyl)-4-(2-pyridinyl)-1H-1,2,3-triazole.xTFA] | > 32 | 0.5 | 0.5 | 0.5 to 1 | – | – | –
Cc1ncc([N+](=O)[O-])n1CCn1cc(-c2cncnc2)nn1 [Compound 4i, 1-(2-(2-methyl-5-nitro-1H-imidazol-1-yl)ethyl)-4-(5-pyrimidinyl)-1H-1,2,3-triazole] | > 32 | 0.5 to 1 (≈ 1.67 to 3.33 µM) | 1 (≈ 3.33 µM) | 1 (≈ 3.33 µM) | – | – | –
Cc1ncc([N+](=O)[O-])n1CCn1cc(-c2ncccn2)nn1 [Compound 4j, 1-(2-(2-methyl-5-nitro-1H-imidazol-1-yl)ethyl)-4-(2-pyrimidinyl)-1H-1,2,3-triazole] | > 32 | 2 (≈ 6.66 µM) | 2 (≈ 6.66 µM) | 2 (≈ 6.66 µM) | – | – | –
Cc1ncc([N+](=O)[O-])n1CCn1cc(Cc2ccccc2)nn1 [Compound 4k, 1-(2-(2-methyl-5-nitro-1H-imidazol-1-yl)ethyl)-4-benzyl-1H-1,2,3-triazole] | > 32 | 0.5 (≈ 1.6 µM) | 0.5 (≈ 1.6 µM) | 0.5 (≈ 1.6 µM) | – | – | –
Cc1ncc([N+](=O)[O-])n1CCn1cc(C(O)c2ccccc2)nn1 (centres unmarked) [Compound 4l, 1-(2-(2-methyl-5-nitro-1H-imidazol-1-yl)ethyl)-4-(1-phenyl-1-hydroxylmethyl)-1H-1,2,3-triazole] | > 32 | 1 (≈ 3.05 µM) | 0.5 to 1 (≈ 1.52 to 3.05 µM) | 1 (≈ 3.05 µM) | – | – | –
Cc1ncc([N+](=O)[O-])n1CCn1cc(CN(C)Cc2ccccc2)nn1 [Compound 4m, 1-(2-(2-methyl-5-nitro-1H-imidazol-1-yl)ethyl)-4-(N-benzyl, N-methylaminomethyl)-1H-1,2,3-triazole] | > 32 | 1 (≈ 2.81 µM) | 2 (≈ 5.63 µM) | 1 to 2 (≈ 2.81 to 5.63 µM) | – | – | –
Cc1ncc([N+](=O)[O-])n1CCn1cc(-c2ccsc2)nn1 [Compound 4n, 1-(2-(2-methyl-5-nitro-1H-imidazol-1-yl)ethyl)-4-(thiophen-3-yl)-1H-1,2,3-triazole] | > 32 | 0.5 (≈ 1.64 µM) | 0.5 (≈ 1.64 µM) | 0.5 (≈ 1.64 µM) | – | – | –
Cc1ncc([N+](=O)[O-])n1CCn1cc(CN2CCS(=O)(=O)CC2)nn1 [Compound 4o, 1-(2-(2-methyl-5-nitro-1H-imidazol-1-yl)ethyl)-4-((1,1-dioxothiomorpholin-4-yl)methyl)-1H-1,2,3-triazole] | > 32 | > 64 | > 64 | > 64 | – | – | –
Cc1ncc([N+](=O)[O-])n1CCn1cc(CCO)nn1 [Compound 4p, 1-(2-(2-methyl-5-nitro-1H-imidazol-1-yl)ethyl)-4-(2-hydroxyethyl)-1H-1,2,3-triazole] | > 32 | 16 (≈ 60.1 µM) | 8 (≈ 30 µM) | 8 to 16 (≈ 30 to 60.1 µM) | – | – | –
